Results from patent US7176226B2, “Crystal modification II of 2-[2-(1-chloro-cyclopropyl)-3-(2-chlorophenyl)-2-hydroxy-propyl]-2,4-dihydro-3H-1,2,4-triazole-3-thione” (Bayer Cropscience AG, priority 2002, dated 2007).

How the values were obtained:
[1] = thermodynamic stability of the crystal forms; settings: for thermodynamic stability of the crystal form: at room temperature
[2] = particle density of the crystal forms (Ultrapyknometer, or from single crystal X-ray structural analysis); assay type: physicochemical; settings: for Density, calculated from SCA: calculated from single crystal X-ray structural analysis (SCA); for Density, experimental: method SOP 5024, Ultrapyknometer 1000 T
Protocol: A DSC Pyris 1 from Perkin Elmer was used to determine the melting points. The measurements were carried out using a heating rate of 10 K min^−1. In each case, the given melting points refer to the peak maximum under the given conditions. The Raman spectra of the crystal forms were recorded using an RFS 100/S FT-Raman from Bruker (128 scans per measurement). The particle density was determined experimentally according to method SOP 5024 for determining densities using the Ultrapyknometer 1000 T from Quanta-Chrome or theoretically from the single crystal. X-ray structural analysis (SCA). The single crystal X-ray structural analysis was carried out using a P4RA four-cycle diffractometer from Siemens with rotating anode generator, graphite monochromator, scintillation counter and low-temperature unit. Measurement was carried out using molybdenum radiation of a wavelength of 0.71073 (MoKα).

Row | Structure (SMILES) | thermodynamic stability of the crystal form [1] | Density, calculated from SCA [2] | Density, experimental [2] | temperature below which the crystal form is stable ([1]; pressure of 1013 mbar)
1 | OC(Cc1ccccc1Cl)(Cn1nc[nH]c1=S)C1(Cl)CC1 (stereo not shown) [form I, 2-[2-(1-chlorocyclopropyl)-3-(2-chlorophenyl)-2-hydroxypropyl]-2,4-dihydro-3H-1,2,4-triazole-3-thione, reference compound] | metastable | 1.432 Mg/m^3 | 1.39 Mg/m^3 | 
2 | OC(Cc1ccccc1Cl)(Cn1nc[nH]c1=S)C1(Cl)CC1 (stereo not shown) [form II, 2-[2-(1-chlorocyclopropyl)-3-(2-chlorophenyl)-2-hydroxypropyl]-2,4-dihydro-3H-1,2,4-triazole-3-thione] | thermodynamically stable | 1.471 Mg/m^3 | 1.43 Mg/m^3 | below 90 °C
